Values after ≈ are worked out from the molar mass of the structure shown.
Legend:
Kinetic solubility = type: physicochemical; settings: Dulbecco's phosphate buffer saline (DPBS), aqueous buffer, kinetic from dmso stock, DPBS pH 7.4, 25° C., 200 μM test compound
Procedure: Example 144. Kinetic Solubility
10 μL of 10 mM DMSO stock solution were aliquotted to 490 μL of DMSO solution and separately 490 μL of Dulbecco's phosphate buffer saline, DPBS, pH 7.4 solution in 1.2 mL 96-well plates in duplicate. Final concentration was 200 μM of the test compound. Samples were incubated at 25° C. with shaking at 200 rpm for 16 h. Samples were centrifuged at 3500 rpm for 20 min at 25° C., and supernatant was submitted for HPLC analysis.
Kinetic solubility was measured using the following equation: […]

[1] = test system: Human Heme Oxygenase-1 (HMOX-1); experiment: ELISA assay to measure human heme oxygenase-1 (HMOX-1) in HepG2 lysate; type: cell-based; settings: for EC50: human HMOX1 protein level in HepG2 lysate, * = average of 2 or more EC50 determinations, NA = Not Active, read-out: EC50
Procedure: Example 143. ELISA Assay to Measure Human Heme Oxygenase-1 (HMOX-1) in HepG2 lysate
Reagents and Technical Notes:
ELISA capture antibody, standard HO-1, detection antibody and streptavidin HRP were supplied in the DuoSet IC Human total HO-1 ELISA from R&D systems (DYC3776-2). The substrate cocktail was KPL LumiGLO reserve Chemiluminescent Substrate (54-71-00). PBS was Corning Cellgro Cell Culture (21-040-CV). 10×PBS+0.05% tween20 (PBST) was from KPL.
All incubations of the plate were at room temperature (20° C.) in a closed drawer.
The ELISA plate was processed manually. All loadings were with a multichannel pipet. Plates were emptied by shaking into the sink and tapping onto paper towels to remove any remaining reagent. Plate washing was accomplished by loading all wells with PBS+0.05% tween20 (PBST) using a squirt bottle, shaking the PBST out and tapping the plate onto paper towels.
Preparation of the ELISA Plate:
• 1. anti-HO-1 capture antibody was 1440 μg/ml after reconstitution in PBS. This antibody was diluted to 8 μg/ml in PBS and 50 μl per well was added to a 384 well greiner “lumitrac 200” plate. Incubated overnight. • 2. The plate was emptied and 100 μl PBS+1% BSA added to all wells. Incubated 90 minutes at room temperature. Preparation of HepG2 Lysate: • 1. Cells were cultured in a 96-well tissue culture plate washed with PBS and then the plate frozen at −70° C. overnight. Plates were allowed to warm to ice temperature in an ice bucket. 20 μl of PBS, 0.5% Triton X100, 1 mM EDTA with 1×HALT™ protease inhibitors was added to each well and the plates incubated on ice for 1 hour. • 2. The lysates were frozen at −20° C. overnight. Measurement of HMOX1 (“HO-1”) • 1. In a polypropylene 384 well plate, human HO-1 (after reconstitution in PBS+0.5% Triton+1 mM EDTA) was serially diluted from 20 ng/ml 2-fold in PBS+0.5% triton-X100, 1 mM EDTA to make a 12-point standard curve including a zero point. • 2. In a polypropylene 96 well plate, HepG2 lysate was diluted 1 to 20 in Diluent #4 from DUOSET kit in which the assay standard is also diluted. • 3. The PBS+1% BSA was emptied from the ELISA plate and 30 μl of all samples and standards were added (duplicates recommended). The plate was incubated 90 minutes. • 4. Emptied plate and washed 4 times with PBST. • 5. Diluted HO-1 detection antibody to 200 ng/ml in PBS+1% BSA and added 30 μl to all wells. Incubated 90 minutes. • 6. Emptied plate and washed 4 times with PBST. • 7. Added 30 μl streptavidin HRP at 1/200 in PBS+1% BSA (stock streptavidin concentration not specified) to all wells. Incubated 30 minutes. • 8. Emptied plate and washed 4 times with PBST. • 9. Diluted Lumiglo reserve reagent two parts buffer to one part lumiglo substrate. Added 30 μl to all wells. Incubated 5 minutes. • 10. Measured chemiluminescence on spectramax M5 using 150 ms integration.
Table 1 below lists EC50 and fold changes of human HMOX1 protein levels relative to DMSO control upon treatment with representative compounds.

Row | solubility at 16 h (Kinetic solubility) | EC50 [1] | Maximum Fold induction ([1]; fold change of human HMOX1 protein level relative to DMSO control, HepG2) | Structure (SMILES)
1 | 2 µM (≈ 0.835 µg/mL) | 1800 nM | – | Cn1c(Nc2nc3ccc(OC(F)F)cc3o2)nc2cc(C(=O)NCCO)ccc21 [Example 64, 2-((6-(difluoromethoxy)benzo[d]oxazol-2-yl)amino)-N-(2-hydroxyethyl)-1-methyl-1H-benzo[d]imidazole-5-carboxamide]
2 | 0.9 µM (≈ 0.367 µg/mL) | 700 nM | – | COCCNC(=O)c1ccc2c(c1)nc(Nc1nc3ccc(C(C)C)cc3o1)n2C [Example 60, 2-((6-isopropylbenzo[d]oxazol-2-yl)amino)-N-(2-methoxyethyl)-1-methyl-1H-benzo[d]imidazole-5-carboxamide]
3 | 0.5 µM (≈ 0.191 µg/mL) | 600 nM | – | COCCONC(=O)c1ccc2c(c1)nc(Nc1nc3ccccc3o1)n2C [Example 119, 2-(benzo[d]oxazol-2-ylamino)-N-(2-methoxyethoxy)-1-methyl-1H-benzo[d]imidazole-5-carboxamide]
4 | < 5 µM | 2200 nM | – | Cn1c(Nc2nc3ccc(OC(F)(F)F)cc3o2)nc2cc(C(=O)Nc3cn[nH]c3)ccc21 [Example 46, 1-methyl-N-(1H-pyrazol-4-yl)-2-((6-(trifluoromethoxy)benzo[d]oxazol-2-yl)amino)-1H-benzo[d]imidazole-5-carboxamide]
5 | 14.1 µM (≈ 6.03 µg/mL) | 3400 nM | – | Cn1c(Nc2nc3ccc(OCCO)cc3o2)nc2cc(C(=O)NOCCO)ccc21 [Example 129, N-(2-hydroxyethoxy)-2-((6-(2-hydroxyethoxy)benzo[d]oxazol-2-yl)amino)-1-methyl-1H-benzo[d]imidazole-5-carboxamide]
6 | 3.2 µM | 3500 nM | – | CC(C)C(N)C(=O)OCCOCCNC(=O)c1ccc2c(c1)nc(Nc1nc3ccccc3o1)n2C.Cl (racemic) [Example 30, 2-(2-(2-(benzo[d]oxazol-2-ylamino)-1-methyl-1H-benzo[d]imidazole-5-carboxamido)ethoxy)ethyl DL-valinate hydrochloride]
7 | < 2 µM | 1300 nM | – | CC(O)COCCNC(=O)c1ccc2c(c1)nc(Nc1nc3ccc(C(F)(F)F)cc3o1)n2C (stereo not drawn) [Example 38, N-(2-(2-hydroxypropoxy)ethyl)-1-methyl-2-((6-(trifluoromethyl)benzo[d]oxazol-2-yl)amino)-1H-benzo[d]imidazole-5-carboxamide]
8 | 3.5 µM (≈ 1.52 µg/mL) | 300 nM | – | Cn1c(Nc2nc3ccc(C(F)(F)F)cc3o2)nc2cc(C(=O)NOCCO)ccc21 [Example 125, N-(2-hydroxyethoxy)-1-methyl-2-((6-(trifluoromethyl)benzo[d]oxazol-2-yl)amino)-1H-benzo[d]imidazole-5-carboxamide]

Continued, compound first:

Row | Structure (SMILES) | solubility at 16 h (Kinetic solubility) | EC50 [1] | Maximum Fold induction ([1]; fold change of human HMOX1 protein level relative to DMSO control, HepG2)
9 | COCCNC(=O)c1cc2nc(Nc3nc4ccc(OC(F)(F)F)cc4o3)n(C)c2cc1F [Example 71, 6-fluoro-N-(2-methoxyethyl)-1-methyl-2-((6-(trifluoromethoxy)benzo[d]oxazol-2-yl)amino)-1H-benzo[d]imidazole-5-carboxamide] | 0.3 µM (≈ 0.14 µg/mL) | 730 nM | –
10 | COc1ccc2nc(Nc3nc4cc(C(=O)NCCO)ccc4n3C)oc2c1 [Example 92, N-(2-hydroxyethyl)-2-((6-methoxybenzo[d]oxazol-2-yl)amino)-1-methyl-1H-benzo[d]imidazole-5-carboxamide] | 3.5 µM (≈ 1.33 µg/mL) | 1400 nM | –
11 | CN(C)CC(=O)NCCNC(=O)c1ccc2c(c1)nc(Nc1nc3ccc(OC(F)(F)F)cc3o1)n2C [Example 49, N-(2-(2-(dimethylamino)acetamido)ethyl)-1-methyl-2-((6-(trifluoromethoxy)benzo[d]oxazol-2-yl)amino)-1H-benzo[d]imidazole-5-carboxamide] | < 2 µM | 800 nM | –
12 | COCCONC(=O)c1ccc2c(c1)nc(Nc1nc3ccc(C(C)=O)cc3o1)n2C [Example 132, 2-((6-acetylbenzo[d]oxazol-2-yl)amino)-N-(2-methoxyethoxy)-1-methyl-1H-benzo[d]imidazole-5-carboxamide] | 3.1 µM (≈ 1.31 µg/mL) | 1500 nM | –
13 | Cn1c(Nc2nc3ccc(Br)cc3o2)nc2cc(C(=O)O)ccc21 [Example 91, 2-((6-bromobenzo[d]oxazol-2-yl)amino)-1-methyl-1H-benzo[d]imidazole-5-carboxylic acid] | 2.6 µM (≈ 1.01 µg/mL) | 2500 nM | –
14 | Cn1c(Nc2nc3ccc(OC(F)(F)F)cc3o2)nc2cc(C(=O)NC(CO)(CO)CO)ccc21 [Example 47, N-(1,3-dihydroxy-2-(hydroxymethyl)propan-2-yl)-1-methyl-2-((6-(trifluoromethoxy)benzo[d]oxazol-2-yl)amino)-1H-benzo[d]imidazole-5-carboxamide] | < 2 µM | 1600 nM | –
15 | Cn1c(Nc2nc3ccc(OC(F)(F)F)cc3o2)nc2cc(C(=O)NCC3(O)COC3)ccc21 [Example 52, N-((3-hydroxyoxetan-3-yl)methyl)-1-methyl-2-((6-(trifluoromethoxy)benzo[d]oxazol-2-yl)amino)-1H-benzo[d]imidazole-5-carboxamide] | < 2 µM | 1000 nM | –
16 | Cn1c(Nc2nc3cc(F)c(C(F)(F)F)cc3o2)nc2cc(C(=O)NOCCO)ccc21 [Example 130, 2-((5-fluoro-6-(trifluoromethyl)benzo[d]oxazol-2-yl)amino)-N-(2-hydroxyethoxy)-1-methyl-1H-benzo[d]imidazole-5-carboxamide] | < 2 µM | 740 nM | –
17 | COCCNC(=O)c1ccc2c(c1)nc(Nc1nc3ccc(OCC(F)(F)F)cc3o1)n2C [Example 99, N-(2-methoxyethyl)-1-methyl-2-((6-(2,2,2-trifluoroethoxy)benzo[d]oxazol-2-yl)amino)-1H-benzo[d]imidazole-5-carboxamide] | 0.4 µM (≈ 0.185 µg/mL) | 920 nM | –
18 | Cn1c(Nc2nc3ccc(C(F)(F)F)cc3o2)nc2cc(C(=O)NCCOCC(C)(C)O)ccc21 [Example 42, N-(2-(2-hydroxy-2-methylpropoxy)ethyl)-1-methyl-2-((6-(trifluoromethyl)benzo[d]oxazol-2-yl)amino)-1H-benzo[d]imidazole-5-carboxamide] | 3.6 µM (≈ 1.77 µg/mL) | 2300 nM | 29 fold
19 | CC1CCc2nc(Nc3nc4cc(C(=O)NOCCO)ccc4n3C)sc2C1 (stereo not drawn) [Example 131, N-(2-hydroxyethoxy)-1-methyl-2-((6-methyl-4,5,6,7-tetrahydrobenzo[d]thiazol-2-yl)amino)-1H-benzo[d]imidazole-5-carboxamide] | 6.7 µM (≈ 2.69 µg/mL) | 1400 nM | –
20 | Cn1c(Nc2nc3cc(F)c(C(F)(F)F)cc3o2)nc2cc(C(=O)NCCO)ccc21 [Example 108, 2-((5-fluoro-6-(trifluoromethyl)benzo[d]oxazol-2-yl)amino)-N-(2-hydroxyethyl)-1-methyl-1H-benzo[d]imidazole-5-carboxamide] | 0.3 µM (≈ 0.131 µg/mL) | 1500 nM | –
21 | Cn1c(Nc2nc3ccc(Cl)cc3o2)nc2cc(C(=O)NCCO)ccc21 [Example 97, 2-((6-chlorobenzo[d]oxazol-2-yl)amino)-N-(2-hydroxyethyl)-1-methyl-1H-benzo[d]imidazole-5-carboxamide] | < 5 µM | 1400 nM | –
22 | Cn1c(Nc2nc3ccc(C(F)(F)F)cc3o2)nc2cc(C(=O)NCC(O)CO)ccc21 (stereo not drawn) [Example 39, N-(2,3-dihydroxypropyl)-1-methyl-2-((6-(trifluoromethyl)benzo[d]oxazol-2-yl)amino)-1H-benzo[d]imidazole-5-carboxamide] | 2.1 µM (≈ 0.944 µg/mL) | 950 nM | –

From patent US10766888B1, “HMOX1 inducers” (Mitobridge Inc., priority 2019, dated 2020)
